Measurements as given in ChEMBL document CHEMBL5500352, “ML162 derivatives incorporating a naphthoquinone unit as ferroptosis/apoptosis inducers: Design, synthesis, anti-cancer activity, and drug-resistance reversal evaluation” (Eur J Med Chem, 2024).
Activity calls are given as the source filed them. No cut-off for these calls is given here.

Legend:
HT-1080 [1] = test: Cytotoxicity against human HT-1080 cells incubated for 48 hrs by CCK-8 assay; assay type: functional, cell-based; details: HT-1080, 48 h
HT-1080 [2] = test: Induction of ferroptosis in human HT-1080 cells assessed as accumulation of lipid peroxidation at 10 uM after 6 hrs by BODIPYTM 581/591C11 probe based flow cytometry assay; assay type: functional, cell-based
[3] = Cytotoxicity against human HPNE cells; assay type: toxicity, cell-based
[4] = Selectivity index, ratio of IC50 for human HPNE cells to IC50 for human HT-1080 cells
HT-1080 [5] = test: Induction of ferroptosis in human HT-1080 cells assessed as appearance of ruptured mitochondria at 4 uM after 24 hrs by transmission electron microscope analysis; assay type: functional, cell-based
HT-1080 [6] = test: Induction of ferroptosis in human HT-1080 cells assessed as mitochondrial swelling at 4 uM after 24 hrs by transmission electron microscope analysis; assay type: functional, cell-based
HT-1080 [7] = test: Induction of ferroptosis in human HT-1080 cells assessed as decrease in mitochondrial crests at 4 uM after 24 hrs by transmission electron microscope analysis; assay type: functional, cell-based
HT-1080 [8] = test: Induction of ferroptosis in human HT-1080 cells assessed as appearance of broken outer membrane of mitochondria at 4 uM after 24 hrs by transmission electron microscope analysis; assay type: functional, cell-based
HT-1080 [9] = test: Cytotoxicity against human HT-1080 cells assessed as cell viability at 4 uM in presence of fer-1 (reference value: 30%); assay type: functional; details: read-out: Activity
[10] = molecular target: T1, Phospholipid hydroperoxide glutathione peroxidase GPX4 (Homo sapiens) (UniProt P36969); test: Induction of GPX4 degradation in human HT-1080 cells at 2 to 4 uM after 24 hrs in presence of MG132 by Western blotting assay; assay type: cell-based; details: dose 2-4 µM
T1 sequence (whole entry): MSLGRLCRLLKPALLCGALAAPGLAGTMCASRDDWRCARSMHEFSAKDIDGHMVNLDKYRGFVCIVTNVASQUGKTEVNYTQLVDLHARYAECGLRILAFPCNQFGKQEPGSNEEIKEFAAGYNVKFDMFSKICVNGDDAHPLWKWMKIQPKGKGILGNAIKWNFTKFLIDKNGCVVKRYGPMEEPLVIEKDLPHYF

HT-1080 [11] = test: Induction of apoptosis in human HT-1080 cells assessed as increase in Bax level after 24 hrs by Western blotting analysis; assay type: functional, cell-based; details: dose 0.5-4 µM
HT-1080 [12] = test: Induction of apoptosis in human HT-1080 cells assessed as decrease in Bcl-2 level after 24 hrs by Western blotting analysis; assay type: functional, cell-based; details: dose 0.5-4 µM
HT-1080 [13] = test: Induction of apoptosis in human HT-1080 cells assessed as early apoptotic cells at 1 uM incubated for 24 hrs by Annexin-V FITC/PI staining based flow cytometry analysis (reference value: 1.85%); assay type: functional
HT-1080 [14] = test: Induction of apoptosis in human HT-1080 cells assessed as late apoptotic cells at 1 uM incubated for 24 hrs by Annexin-V FITC/PI staining based flow cytometry analysis (reference value: 1.66%); assay type: functional
HT-1080 [15] = test: Induction of apoptosis in human HT-1080 cells assessed as necrotic cells at 1 uM incubated for 24 hrs by Annexin-V FITC/PI staining based flow cytometry analysis (reference value: 3.98%); assay type: functional
HT-1080 [16] = test: Induction of apoptosis in human HT-1080 cells assessed as viable cells at 2 uM incubated for 24 hrs by Annexin-V FITC/PI staining based flow cytometry analysis (reference value: 92.5%); assay type: functional; details: read-out: Activity
HT-1080 [17] = test: Induction of apoptosis in human HT-1080 cells assessed as late apoptotic cells at 2 uM incubated for 24 hrs by Annexin-V FITC/PI staining based flow cytometry analysis (reference value: 1.66%); assay type: functional
HT-1080 [18] = test: Induction of apoptosis in human HT-1080 cells assessed as necrotic cells at 4 uM incubated for 24 hrs by Annexin-V FITC/PI staining based flow cytometry analysis (reference value: 3.98%); assay type: functional
HT-1080 [19] = test: Inhibition of colony formation in human HT-1080 cells incubated for 48 hrs followed by replacement with fresh media and measured after 12 days by crystal violet staining based assay; assay type: functional, cell-based; details: dose 1-2 µM
HT-1080 [20] = test: Inhibition of cell migration in human HT-1080 cells incubated for 24 to 48 hrs by inverted microscope based wound healing assay; assay type: functional; details: dose 1-2 µM, time 24-48 hrs
HT-1080 [21] = test: Antitumor activity against human HT-1080 cells xenografted in BALB/c nude mouse assessed as tumor growth inhibition at 40 mg/kg, ip administered once daily for 19 days and measured every 2 days; assay type: functional; details: HT-1080, 456 h, time 19 day, read-out: TGI
HT-1080 [22] = test: Antitumor activity against human HT-1080 cells xenografted in BALB/c nude mouse assessed as tumor growth inhibition at 20 mg/kg, ip administered once daily for 19 days and measured every 2 days; assay type: functional, organism-based; details: time 19.0 day
HT-1080 [23] = test: Antitumor activity against human HT-1080 cells xenografted in ip dosed BALB/c nude mouse assessed as tumor growth inhibition administered once daily for 19 days and measured every 2 days; assay type: functional, organism-based; details: dose 20-40 mg/kg, time 19.0 day
HT-1080 [24] = test: Antitumor activity against human HT-1080 cells xenografted in ip dosed BALB/c nude mouse assessed as reduction in GPX4 level administered once daily for 19 days and measured every 2 days by immunohistochemistry assay; assay type: functional, organism-based; details: dose 20-40 mg/kg, time 19.0 day
HT-1080 [25] = test: Antitumor activity against human HT-1080 cells xenografted in ip dosed BALB/c nude mouse assessed as reduction in Bcl-2 level administered once daily for 19 days and measured every 2 days by immunohistochemistry assay; assay type: functional, organism-based; details: dose 20-40 mg/kg, time 19.0 day
HT-1080 [26] = test: Antitumor activity against human HT-1080 cells xenografted in ip dosed BALB/c nude mouse assessed as increase in 4-HNE level administered once daily for 19 days and measured every 2 days by immunohistochemistry assay; assay type: functional, organism-based; details: dose 20-40 mg/kg, time 19.0 day
[27] = Toxicity in BALB/c nude mouse xenografted with human HT-1080 cells assessed as change in heart morphology at 20 to 40 mg/kg, ip administered once daily for 19 days and measured every 2 days by H and E staining based assay; assay type: organism-based; details: in vivo, 456 h, dose 20-40 mg/kg, time 19 day
[28] = Toxicity in BALB/c nude mouse xenografted with human HT-1080 cells assessed as change in liver morphology at 20 to 40 mg/kg, ip administered once daily for 19 days and measured every 2 days by H and E staining based assay; assay type: organism-based; details: in vivo, 456 h, dose 20-40 mg/kg, time 19 day
[29] = Toxicity in BALB/c nude mouse xenografted with human HT-1080 cells assessed as change in lung morphology at 20 to 40 mg/kg, ip administered once daily for 19 days and measured every 2 days by H and E staining based assay; assay type: organism-based; details: in vivo, 456 h, dose 20-40 mg/kg, time 19 day
[30] = Toxicity in BALB/c nude mouse xenografted with human HT-1080 cells assessed as change in kidney morphology at 20 to 40 mg/kg, ip administered once daily for 19 days and measured every 2 days by H and E staining based assay; assay type: organism-based; details: in vivo, 456 h, dose 20-40 mg/kg, time 19 day
[31] = Toxicity in BALB/c nude mouse xenografted with human HT-1080 cells assessed as necrosis at 20 to 40 mg/kg, ip administered once daily for 19 days and measured every 2 days by H and E staining based assay; assay type: organism-based; details: in vivo, 456 h, dose 20-40 mg/kg, time 19 day
[32] = test system: AMG 510-resistant MIA PaCa-2; test: Cytotoxicity against human AAMG 510-resistant MIA PaCa-2 cells upto 5 uM; assay type: functional, cell-based
[33] = Potentiation of AMG510 induced cytotoxicity in human AMG 510-resistant MIA PaCa-2 cells assessed as reduction in cell survival rate at 5 uM in presence of 10 nM AMG510 (reference value: 90%); assay type: functional

## O=C(CCCCCNC1=CC(=O)c2ccccc2C1=O)Nc1ccc(N(C(=O)CCl)C(C(=O)NCCc2ccccc2)c2cccs2)cc1 (stereo not drawn)
HT-1080 [1]
  IC50: 1.6 µM
HT-1080 [2]
  Activity: Active
[3]
  IC50: 9.55 µM
[4]
  Ratio IC50: 5.96
HT-1080 [5]
  Activity: Active
HT-1080 [6]
  Activity: Active
HT-1080 [7]
  Activity: Active
HT-1080 [8]
  Activity: Active
HT-1080 [9]
  viability at 4 µM: 66%
[10]
  Activity: inactive
HT-1080 [11]
  Activity: Dose-Dependent Effect
HT-1080 [12]
  Activity: Dose-Dependent Effect
HT-1080 [13]
  Activity: 3.85%
HT-1080 [14]
  Activity: 3.11%
HT-1080 [15]
  Activity: 2.32%
HT-1080 [16]
  viability at 2 µM: 82.7%
HT-1080 [17]
  Activity: 4.75%
HT-1080 [18]
  Activity: 3.03%
HT-1080 [19]
  inhibition: Dose-Dependent Effect
HT-1080 [20]
  inhibition: Dose-Dependent Effect
HT-1080 [21]
  inhibition in vivo at 40 mg/kg: 63%
HT-1080 [22]
  Activity: Active
HT-1080 [23]
  Activity: Dose-Dependent Effect
HT-1080 [24]
  Activity: Dose-Dependent Effect
HT-1080 [25]
  Activity: Dose-Dependent Effect
HT-1080 [26]
  Activity: Dose-Dependent Effect
[27]
  Activity: Non-Toxic
[28]
  Activity: Non-Toxic
[29]
  Activity: Non-Toxic
[30]
  Activity: Non-Toxic
[31]
  Activity: Non-Toxic
[32]
  Activity: inactive
[33]
  Activity: ~10%
